For orientation: IC50 means the concentration needed to halve the response being measured.

Data on 1 compound can be found in patent publication US20250250647A1, “STABLE CELL CLONES HARBORING REPLICATING SARS-COV-2 RNA” (priority 2021, published 2025).

This assay relates to SARS-CoV-2-Rep-NanoLuc-Neo-Nsp1^K164A/H165A replicon. The assay is classed as cell-based. To be noted: read-out: IC50, mean over stable replicon clones. In general terms: In antiviral work, replicon cells carry a viral genome segment that copies itself.

For the compound `CC(C)C[C@H](NC(=O)OCc1ccccc1)C(=O)N[C@@H](CC1CCNC1=O)C(O)S(=O)(=O)O` (stereo partly shown) [GC376], the IC50 worked out at 9.3 µM.
